# Test results as given in the supplement of paper PMC10307832.
# Tests used:
# Assay in all cases: relative viability (nuclei count vs DMSO), 5 days (fraction); higher = more cells survive
# RU-SKI 43 + Trametinib = compound: CC[C@@H](C)CNCC(=O)N1CCC2=C([C@@H]1COC3=CC=CC(=C3)C)C=CS2 [RU-SKI 43] + CC(=O)Nc1cccc(-n2c(=O)n(C3CC3)c(=O)c3c(Nc4ccc(I)cc4F)n(C)c(=O)c(C)c32)c1 [Trametinib] (partner 0.02 µM)
# How it was run: (§1)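 Lung cancer cell lines in 1536-well plates were dosed by pin tool the day after seeding, either with one drug alone or with a fixed anchor-drug dose plus five library-drug doses (not always all listed) in √10 steps. After 5 days, cells were fixed and their nuclei stained in one step (final 0.05% Triton X-100, 1% formaldehyde, 1 ug/ml Hoechst), then counted on 4× images. Relative viability is the nuclei count in treated wells divided by that in vehicle wells. Values are medians of duplicate plates.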
# MK-8033 + Navitoclax = compound: Cn1cc(-c2cnc3ccc4ccc(CS(=O)(=O)NCc5ccccn5)cc4c(=O)c3c2)cn1 [MK-8033] + CC1(C)CCC(c2ccc(Cl)cc2)=C(CN2CCN(c3ccc(C(=O)NS(=O)(=O)c4ccc(N[C@H](CCN5CCOCC5)CSc5ccccc5)c(S(=O)(=O)C(F)(F)F)c4)cc3)CC2)C1 [Navitoclax] (partner 0.5 µM)
# How it was run: as §1
# MK-8033 + Phenformin = compound: Cn1cc(-c2cnc3ccc4ccc(CS(=O)(=O)NCc5ccccn5)cc4c(=O)c3c2)cn1 [MK-8033] + N=C(N)NC(=N)NCCc1ccccc1 [Phenformin] (partner 250 µM)
# How it was run: as §1
# MK-8033 + Olaparib = compound: Cn1cc(-c2cnc3ccc4ccc(CS(=O)(=O)NCc5ccccn5)cc4c(=O)c3c2)cn1 [MK-8033] + O=C(c1cc(Cc2n[nH]c(=O)c3ccccc23)ccc1F)N1CCN(C(=O)C2CC2)CC1 [Olaparib] (partner 8 µM)
# How it was run: as §1
Cell Line,relative viability (RU-SKI 43 + Trametinib; first compound 0.1 µM),relative viability (RU-SKI 43 + Trametinib; first compound 0.3162 µM),relative viability (RU-SKI 43 + Trametinib; first compound 1 µM),relative viability (RU-SKI 43 + Trametinib; first compound 3.162 µM),relative viability (RU-SKI 43 + Trametinib; first compound 10 µM),relative viability (MK-8033 + Navitoclax; first compound 0.02 µM),relative viability (MK-8033 + Navitoclax; first compound 0.06325 µM),relative viability (MK-8033 + Navitoclax; first compound 0.2 µM),relative viability (MK-8033 + Navitoclax; first compound 0.6325 µM),relative viability (MK-8033 + Navitoclax; first compound 2 µM),relative viability (MK-8033 + Phenformin; first compound 0.02 µM),relative viability (MK-8033 + Phenformin; first compound 0.06325 µM),relative viability (MK-8033 + Phenformin; first compound 0.2 µM),relative viability (MK-8033 + Phenformin; first compound 0.6325 µM),relative viability (MK-8033 + Phenformin; first compound 2 µM),relative viability (MK-8033 + Olaparib; first compound 0.02 µM),relative viability (MK-8033 + Olaparib; first compound 0.06325 µM),relative viability (MK-8033 + Olaparib; first compound 0.2 µM),relative viability (MK-8033 + Olaparib; first compound 0.6325 µM),relative viability (MK-8033 + Olaparib; first compound 2 µM)
201T,0.709,0.717,0.776,0.789,0.749,1.26,1.19,1.21,1.16,1.2,0.499,0.448,0.39,0.436,0.469,0.873,0.824,0.832,0.82,0.822
A549,,,,,,1.22,1.13,1.16,1.19,1.14,0.221,0.157,0.172,0.148,0.193,0.34,0.275,0.267,0.305,0.336
A-427,0.718,0.694,0.788,0.744,0.706,0.967,0.869,0.891,0.912,0.868,0.308,0.371,0.289,0.325,0.374,0.778,0.722,0.623,0.818,0.676
ABC-1,,,,,,,,,,,0.202,0.219,0.227,0.281,0.211,1.07,0.746,0.838,0.939,0.898
BEN,0.967,1.12,1.06,1.11,1.01,0.067,0.0568,0.0526,0.0753,0.0791,0.288,0.239,0.269,0.233,0.255,1.13,1.01,0.986,0.985,1.01
CAL-12T,0.306,0.242,0.316,0.259,0.351,1.19,1.2,1.15,0.92,1.28,0.56,0.518,0.444,0.697,0.545,0.61,0.692,0.71,0.718,0.756
COR-L23,0.611,0.598,0.672,0.577,0.423,0.938,0.88,0.948,1.01,0.885,0.41,0.422,0.402,0.432,0.421,0.348,0.328,0.378,0.367,0.311
COR-L 105,0.404,0.334,0.41,0.414,0.397,0.689,0.777,0.779,0.694,0.906,0.523,0.395,0.463,0.499,0.476,0.846,0.673,0.7,0.637,0.701
Calu-6,,,,,,0.784,0.799,0.691,0.869,0.905,,,,,,0.601,0.559,0.553,0.582,0.548
